± gives the standard deviation of the averaged measurements.
Experiments:
Assay in all cases: level (log10 ratio to DMSO vehicle control); higher = higher biomarker level / cell amount than vehicle control
[1] = compound: OCC(F)(F)C(F)(F)C(F)(F)C(F)(F)C(F)(F)C(F)(F)CO [1H,1H,8H,8H-Perfluorooctane-1,8-diol] (in DMSO)
Procedure: (§1)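 BioMAP Diversity Plus panel of 12 human primary cell co-culture systems (3C, 4H, LPS, SAg, BT, BF4T, BE3C, CASM3C, HDF3CGF, KF3CT, MyoF, Mphg). Compounds were added 1 h before stimulation and left for 24 h (MyoF 48 h; BT 72 h for soluble read-outs or 6 d for IgG). Biomarkers were read by ELISA, cytotoxicity by SRB, PBMC viability and proliferation by Alamar Blue. Each well value was divided by the mean of 8 DMSO control wells on the same plate and log10 transformed; duplicate blinded samples were tested at 4 concentrations.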

[2] = compound: O=C(O)C=C(C(F)(F)F)C(F)(F)F [3,3-Bis(trifluoromethyl)-2-propenoic acid] (in DMSO)
Procedure: as §1

[3] = compound: CCOC(=O)CC(=O)C(F)(F)C(F)(F)F [Ethyl pentafluoropropionyl acetate] (in DMSO)
Procedure: as §1

Perfluoroundecanoic acid = compound: O=C(O)C(F)(F)C(F)(F)C(F)(F)C(F)(F)C(F)(F)C(F)(F)C(F)(F)C(F)(F)C(F)(F)C(F)(F)F [Perfluoroundecanoic acid] (in DMSO); details: 6700 nM
Procedure: as §1

[4] = compound: O=C(O)CCC(F)(C(F)(F)F)C(F)(F)F [4,4-bis(Trifluoromethyl)-4-fluoropropanoic acid] (in DMSO)
Procedure: as §1

[5] = compound: OCC(F)(F)C(F)(F)C(F)(F)C(F)F [1H,1H,5H-Perfluoropentanol] (in DMSO)
Procedure: as §1

[6] = compound: O=S(=O)(O)CCC(F)(F)C(F)(F)C(F)(F)C(F)(F)C(F)(F)C(F)(F)C(F)(F)C(F)(F)F [8:2 Fluorotelomer sulfonic acid] (in DMSO)
Procedure: as §1

| Test System | level (log10) ([1]; 6700 nM) | level (log10) ([1]; 20000 nM) | level (log10) ([1]; 60000 nM) | level (log10) ([2]; 6700 nM) | level (log10) ([2]; 20000 nM) | level (log10) ([2]; 60000 nM) | level (log10) ([3]; 6700 nM) | level (log10) ([3]; 20000 nM) | level (log10) ([3]; 60000 nM) | level (log10) (Perfluoroundecanoic acid) | level (log10) ([4]; 6700 nM) | level (log10) ([4]; 20000 nM) | level (log10) ([4]; 60000 nM) | level (log10) ([5]; 6700 nM) | level (log10) ([5]; 20000 nM) | level (log10) ([5]; 60000 nM) | level (log10) ([6]; 6700 nM) | level (log10) ([6]; 20000 nM) | level (log10) ([6]; 60000 nM) |
| --- | --- | --- | --- | --- | --- | --- | --- | --- | --- | --- | --- | --- | --- | --- | --- | --- | --- | --- | --- |
| CASM3C:CD106/VCAM-1 | 0.0055 ± 0.022 | 0.02 ± 0.0028 | 0.05 ± 0.0085 | -0.152 ± 0.012 | -0.216 ± 0.021 | -0.284 ± 0.054 | -0.01 ± 0.0085 | -0.011 ± 0.0085 | -0.01 ± 0.023 | -0.032 ± 0.034 | -0.0265 ± 0.049 | -0.0185 ± 0.056 | -0.033 ± 0.0099 | 0.0335 ± 0.023 | 0.027 ± 0.065 | 0.0395 ± 0.013 | 0.0015 ± 0.029 | -0.0425 ± 0.025 | -0.071 ± 0.033 |
| KF3CT:IL-1alpha | -0.0085 ± 0.022 | -0.0095 ± 0.0064 | 0.0225 ± 0.057 | -0.001 ± 0.0057 | -0.016 ± 0.016 | -0.0185 ± 0.032 | -0.021 ± 0.011 | -0.0345 ± 0.022 | -0.001 ± 0.031 | -0.026 ± 0.011 | -0.008 ± 0.021 | -0.0105 ± 0.0064 | -0.0345 ± 0.043 | -0.0465 ± 0.05 | -0.0475 ± 0.056 | 0.0535 ± 0.025 | -0.041 ± 0.027 | -0.137 ± 0.033 | -0.0655 ± 0.046 |
| CASM3C:CXCL9/MIG | 0.0035 ± 0.012 | 0.016 ± 0.0028 | 0.0235 ± 0.021 | -0.059 ± 0.051 | -0.0845 ± 0.022 | -0.0965 ± 0.087 | -0.018 ± 0.03 | -0.0145 ± 0.0064 | -0.0035 ± 0.0092 | -0.027 ± 0.0099 | -0.0035 ± 0.005 | -0.0165 ± 0.00071 | 0.018 ± 0.047 | 0.021 ± 0.03 | 0.0095 ± 0.037 | 0.0005 ± 0.093 | -0.03 ± 0.02 | -0.032 ± 0.0071 | 0 ± 0.021 |
| BE3C:MMP-9 | -0.001 ± 0.028 | 0.0005 ± 0.016 | 0.0015 ± 0.005 | -0.0425 ± 0.005 | -0.0735 ± 0.0021 | -0.079 ± 0.027 | 0.006 ± 0.044 | -0.0145 ± 0.033 | -0.0065 ± 0.013 | -0.139 ± 0.013 | 0.0085 ± 0.035 | -0.024 ± 0.0042 | -0.003 ± 0.03 | -0.009 ± 0.016 | 0.0235 ± 0.018 | 0.0175 ± 0.022 | 0.0045 ± 0.0064 | 0.0325 ± 0.035 | 0.015 ± 0.031 |
| KF3CT:CXCL10/IP-10 | -0.003 ± 0.0028 | -0.001 ± 0.014 | -0.009 ± 0.0085 | -0.01 ± 0.013 | -0.027 ± 0.0014 | -0.0225 ± 0.019 | -0.002 ± 0.013 | -0.009 ± 0.0057 | -0.009 ± 0.0071 | -0.054 ± 0.017 | -0.0055 ± 0.0021 | -0.0005 ± 0.00071 | -0.0005 ± 0.0064 | -0.0125 ± 0.033 | 0.0025 ± 0.00071 | 0.0365 ± 0.00071 | -0.015 ± 0.0028 | -0.044 ± 0.0042 | -0.0495 ± 0.00071 |
| HDF3CGF:CD54/ICAM-1 | -0.01 ± 0.0099 | 0.009 ± 0.0099 | 0.019 ± 0.0014 | 0.033 ± 0.035 | 0.032 ± 0.027 | 0.0555 ± 0.021 | 0.006 ± 0.017 | 0.0055 ± 0.0092 | -0.012 ± 0.034 | -0.0765 ± 0.00071 | 0.006 ± 0.0099 | -0.009 ± 0.041 | -0.0025 ± 0.005 | 0 | -0.01 ± 0.0014 | 0.009 ± 0.023 | -0.012 ± 0.017 | -0.04 ± 0.011 | -0.0805 ± 0.012 |
| 3C:CD141/Thrombomodulin | -0.015 ± 0.0057 | -0.0075 ± 0.016 | -0.001 ± 0.013 | 0.023 ± 0.0057 | 0.0025 ± 0.00071 | 0.0215 ± 0.037 | -0.013 ± 0.0099 | -0.0185 ± 0.021 | -0.0455 ± 0.00071 | -0.023 ± 0.047 | -0.035 ± 0.082 | -0.021 ± 0.062 | -0.0435 ± 0.069 | -0.006 ± 0.011 | -0.013 ± 0.013 | 0.0195 ± 0.011 | -0.003 ± 0.024 | -0.011 ± 0.034 | 0.0285 ± 0.037 |
| KF3CT:CXCL8/IL-8 | -0.0015 ± 0.019 | -0.0215 ± 0.023 | 0 | -0.004 ± 0.0028 | 0.0025 ± 0.0092 | 0.0245 ± 0.016 | -0.012 ± 0.018 | -0.0155 ± 0.0021 | -0.0005 ± 0.029 | -0.0315 ± 0.037 | -0.023 ± 0.0028 | -0.0105 ± 0.00071 | -0.0115 ± 0.013 | 0.0155 ± 0.016 | 0.0205 ± 0.021 | 0.0415 ± 0.049 | 0.016 ± 0.038 | -0.03 ± 0.023 | -0.131 ± 0.036 |
| lMphg:SRB | -0.0125 ± 0.0078 | -0.0115 ± 0.018 | -0.0245 ± 0.00071 | -0.0145 ± 0.013 | -0.0205 ± 0.0021 | -0.0205 ± 0.028 | 0.005 ± 0.0071 | -0.0005 ± 0.0078 | 0.0055 ± 0.0035 | -0.001 ± 0.011 | -0.0025 ± 0.0064 | -0.0005 ± 0.0064 | 0.0065 ± 0.0021 | -0.0065 ± 0.005 | -0.0045 ± 0.0064 | 0.006 ± 0.0014 | -0.006 ± 0.02 | -0.013 ± 0.017 | -0.029 ± 0.0057 |
| KF3CT:CCL2/MCP-1 | -0.017 ± 0.0099 | -0.0235 ± 0.03 | 0.0005 ± 0.081 | -0.0055 ± 0.036 | -0.015 ± 0.014 | -0.028 ± 0.052 | -0.0355 ± 0.0064 | -0.045 ± 0.035 | 0.001 ± 0.071 | -0.075 ± 0.011 | -0.011 ± 0.0057 | -0.0145 ± 0.03 | 0.0015 ± 0.0092 | 0.0055 ± 0.026 | -0.0495 ± 0.087 | 0.007 ± 0.13 | -0.0135 ± 0.005 | -0.0585 ± 0.029 | -0.0475 ± 0.011 |
